From ChEMBL document CHEMBL1201862, “PubChem BioAssay data set” (2004)
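Exposure lasted 48 hours, with cells grown in 96-well plates and compounds tested at five concentrations. At the GI50, growth is halved.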 Activity calls are given as the source filed them. No stated cut-off is given here; in the data, active = GI50 up to about 1.1 µM and inactive = higher.

Assays:
Experiment in all cases: NCI anticancer screen, dose series, 48 h
NCI/ADR-RES = test system: NCI/ADR-RES
OVCAR-8 = test system: OVCAR-8
RPMI-8226 = test system: RPMI-8226
SF-539 = test system: SF-539
SW-620 = test system: SW-620
Malme-3M = test system: Malme-3M
EKVX = test system: EKVX
MCF7 = test system: MCF7
SNB-75 = test system: SNB-75
SK-OV-3 = test system: SK-OV-3
SK-MEL-5 = test system: SK-MEL-5
K562 = test system: K562
786-0 = test system: 786-0
COLO 205 = test system: COLO 205
HL-60 = test system: HL-60
SNB-19 = test system: SNB-19
OVCAR-5 = test system: OVCAR-5
HCT-116 = test system: HCT-116
MDA-MB-231 = test system: MDA-MB-231
IGROV-1 = test system: IGROV-1

SMILES	GI50 (NCI/ADR-RES)	GI50 (OVCAR-8)	GI50 (RPMI-8226)	GI50 (SF-539)	GI50 (SW-620)	GI50 (Malme-3M)	GI50 (EKVX)	GI50 (MCF7)	GI50 (SNB-75)	GI50 (SK-OV-3)	GI50 (SK-MEL-5)	GI50 (K562)	GI50 (786-0)	GI50 (COLO 205)	GI50 (HL-60)	GI50 (SNB-19)	GI50 (OVCAR-5)	GI50 (HCT-116)	GI50 (MDA-MB-231)	GI50 (IGROV-1)
COC(=O)C1=C([C@H]2COC(C)(C)O2)[C@H]2C[C@@H]1[C@@H]1OC(C)(C)O[C@@H]12	> 100 µM (inactive)	> 100 µM (inactive)	> 100 µM (inactive)	> 100 µM (inactive)	> 100 µM (inactive)	> 100 µM (inactive)	> 100 µM (inactive)	> 100 µM (inactive)	> 100 µM (inactive)	> 100 µM (inactive)	> 100 µM (inactive)	> 100 µM (inactive)	> 100 µM (inactive)	> 100 µM (inactive)	> 100 µM (inactive)	> 100 µM (inactive)	> 100 µM (inactive)	> 100 µM (inactive)	> 100 µM (inactive)	> 100 µM (inactive)
[O-][n+]1onc2c1/C(=N/O)CCC2	> 100 µM (inactive)	> 100 µM (inactive)	> 100 µM (inactive)	> 100 µM (inactive)	> 100 µM (inactive)	> 100 µM (inactive)	> 100 µM (inactive)	> 100 µM (inactive)	> 100 µM (inactive)	> 100 µM (inactive)	> 100 µM (inactive)	> 100 µM (inactive)	> 100 µM (inactive)	> 100 µM (inactive)	> 100 µM (inactive)	> 100 µM (inactive)	> 100 µM (inactive)	> 100 µM (inactive)	> 100 µM (inactive)	> 100 µM (inactive)
CCN(CC)CCCNc1c2cc(OC)ccc2nc2cccc([N+](=O)[O-])c12	0.274 µM (active)	0.0904 µM (active)	0.0535 µM (active)	0.141 µM (active)	0.0352 µM (active)	0.118 µM (active)	0.163 µM (active)	0.0333 µM (active)	0.151 µM (active)	0.246 µM (active)	0.0935 µM (active)	0.00643 µM (active)	0.071 µM (active)	0.0238 µM (active)	0.158 µM (active)	0.286 µM (active)	0.0832 µM (active)	0.0327 µM (active)	0.122 µM (active)	0.102 µM (active)
COC(=O)c1cc2c(cc1Cl)Sc1nnc(Nc3ccccc3)n1S2(=O)=O	8.47 µM (inactive)	3.58 µM (inactive)	1.62 µM (inactive)	2.15 µM (inactive)	3.39 µM (inactive)	3.03 µM (inactive)	7.1 µM (inactive)	2.86 µM (inactive)	5.12 µM (inactive)	6.75 µM (inactive)	7.96 µM (inactive)	3.41 µM (inactive)	4.18 µM (inactive)	6.52 µM (inactive)	2.77 µM (inactive)	2.28 µM (inactive)	7.93 µM (inactive)	3.61 µM (inactive)	3.98 µM (inactive)	0.351 µM (active)
